Test results from publication PMC3356383, “Efficacious Intermittent Dosing of a Novel JAK2 Inhibitor in Mouse Models of Polycythemia Vera” (PLoS ONE, 2012).

Tests used:
[1] = biological target: T1, JAK1 (JH1) (Homo sapiens, UniProt P23458); experiment: JAK1 enzyme assay, HTRF detection; assay type: biochemical
T1 construct: JAK1 (JH1)
Method: JAK1, JAK2, JAK3, and TYK2 kinase activity assays were performed as described previously using HTRF detection technology and the peptide substrate amino hexanoyl biotin-EQEDEPEGDYFEWLE-NH2. Each reaction was incubated between 60 and 80 min at room temperature. Final conditions were as follows: JAK1, 400 pM enzyme, Hepes pH 7.5, 10 mM MgCl2, 0.01% Brij-35, 1 mM EGTA, 0.1 mg/ml BSA), 2 mM DTT, 2 µM peptide substrate, 25 µM MgATP, 5% DMSO and the desired concentration of subject compound; JAK2, 25 pM enzyme (JH1, JH1–JH2^wt, JH1–JH2^V617F domains), 2 µM peptide substrate, 15 µM MgATP, 5 mM MgCl2, 100 mM NaCl, 2 mM DTT, 0.1 mg/ml BSA, 50 mM Tris (pH 7.4), 5% DMSO and the desired concentration of subject compound; JAK3, 250 pM enzyme, 50 mM Hepes pH 7.5, 10 mM MgCl2, 0.01% Brij-35, 1 mM EGTA, 0.1 mg/ml BSA), 2 mM DTT, 2.0 µM peptide substrate, 25 µM MgATP, 5% DMSO, and the desired concentration of subject compound; TYK2, 125 pM enzyme, 50 mM Hepes pH 7.5, 10 mM MgCl2, 0.01% Brij-35, 1 mM EGTA, 0.1 mg/ml BSA, 2 mM DTT, 2.0 µM peptide substrate, 15 µM MgATP, 5% DMSO and the desired concentration of subject compound.

[2] = test system: JAK2V617F-Luciferase expressing cells; experiment: Bone marrow transplant mice expressing JAK2V617F-Luciferase (PV model); assay type: in vivo
Method: Production of retrovirus containing cDNA of JAK2 V617F fused to luciferase 2 was performed as described previously as was transplantation of bone marrow cells infected with virus into irradiated mice.
Imaging of mice expressing JAK2 V617F-Luciferase was conducted as described previously.
Measurement of the level of JAK2 V617F allele in the tissues of transplanted mice was done as described previously.
Cells were stained in PBS, 0.5% BSA with antibodies for 15 min on ice. Stained cells were acquired on a 4-laser LSR-II (BD Biosciences) and data analyzed using FlowJo software (Treestar). Dead cells were labeled with the blue fluorescent LIVE/DEAD reactive dye (Invitrogen) and excluded from the analysis.

[3] = test system: darbepoetin-induced polycythemia and splenomegaly; experiment: Darbepoetin-induced model of polycythemia; assay type: in vivo, C57BL/6 mice; conditions: 7 days
Method: C57BL/6 mice (Charles River Laboratories, Wilmington, MA) aged 4–6 weeks were dosed with MRLB-11055 in vehicle (10%v/v polysorbate 80) or with vehicle alone. All dosing was done by oral gavage (10 ml/kg body weight/day). Inhibition of darbepoetin-induced polycythemia and splenomegaly by MRLB-11055 was measured as described previously.

[4] = test system: BaF3 (JAK2 WT) cells; experiment: Cell apoptosis, ApoDirect assay; assay type: cell-based; conditions: Mus musculus, 24 hour, EPO-stimulated, ApoDirect measurement of fragmented DNA, read-out: Cell apoptosis, BaF3 (JAK2 WT) (values shown are EC50)
Method: (§1) Cell survival was measured by ApoDirect (BD Biosciences) assay as follows. BaF3 cells were grown at 37°C, 5% CO2, and aliquots (2 × 10^6) were treated with inhibitor (various concentration dissolved in DMSO) for 24 hours and then fixed and stained as per manufacturer protocol.

[5] = test system: BaF3 (JAK2 V617F) cells; experiment: Cell apoptosis, ApoDirect assay; assay type: cell-based; conditions: Mus musculus, 24 hour, ApoDirect measurement of fragmented DNA, read-out: Cell apoptosis, BaF3 (JAK2 V617F) (values shown are EC50)
Method: as §1

[6] = test system: pSTAT5; experiment: Acute PK/PD: pSTAT5 in peripheral blood of darbepoetin-stimulated mice; assay type: in vivo, C57BL/6 mice; conditions: Mus musculus
Method: C57BL/6 mice (Charles River Laboratories, Wilmington, MA) aged 4–6 weeks were dosed with MRLB-11055 in vehicle (10%v/v polysorbate 80) or with vehicle alone. All dosing was done by oral gavage (10 ml/kg body weight/day). Blood sampling and measurement of pSTAT5 in the blood of darbepoetin-stimulated mice were measured as described previously. The level of MRLB-11055 in the blood of animals was measured by diluting blood samples (10 uL) with citrate buffer (30 uL) and precipitating with acetonitrile (200 uL) containing a structural analog as internal standard. Precipitated samples were filtered, water (200 uL) was added and the sample injected onto a C18 column (Waters Atlantis T3, 2.1 mm x 30 mm). Electrospray ionization with multiple reaction monitoring was used for MS/MS detection.

[7] = test system: H2122 cells; experiment: Cell proliferation, ViaLight assay; assay type: cell-based; conditions: Homo sapiens, NCI-H2122, 48 hour, epithelial lung cancer cell line
Method: (§2) Cell proliferation was measured by ViaLight (Lonza Group Ltd) assay as follows. Cells (1000–2000) were seeded into 384-well plates and incubated 16 hours @ 37°C, 5% CO2. […] Cells were lysed and ATP detected as per the manufacturer protocol.

[8] = test system: CTLL-2 cells; experiment: Cell proliferation, ViaLight assay; assay type: cell-based
Method: as §2

[9] = test system: BaF3 (JAK2 WT) cells; experiment: Cell proliferation, ViaLight assay; assay type: cell-based; conditions: Mus musculus, 48 hour, EPO-stimulated
Method: as §2

[10] = test system: BaF3 (JAK2 V617F) cells; experiment: Cell proliferation, ViaLight assay; assay type: cell-based; conditions: Mus musculus, 48 hour
Method: as §2

T1 sequence (P23458 875-1153 limits assumed, species assumed): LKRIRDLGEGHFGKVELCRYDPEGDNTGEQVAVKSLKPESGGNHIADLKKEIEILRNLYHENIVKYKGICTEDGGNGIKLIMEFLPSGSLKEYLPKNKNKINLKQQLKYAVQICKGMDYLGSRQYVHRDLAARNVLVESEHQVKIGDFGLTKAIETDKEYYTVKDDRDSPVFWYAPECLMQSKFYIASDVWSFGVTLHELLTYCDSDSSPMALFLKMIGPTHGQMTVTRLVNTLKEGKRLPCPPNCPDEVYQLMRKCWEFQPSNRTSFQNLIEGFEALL

NC(=O)c1cnc(N[C@H](C2CC2)C(F)(F)F)c2c1[nH]c1cc(-c3cnc(N)nc3)ccc12 [MRLB-11055]
IC50 ([1]; HTRF, mean, n = 3, read-out: IC50, cell-free JAK1 (JH1)): 1.5 nM | Selectivity for JAK2 over JAK1 ([1]; cell-free assays): 20 fold | Reduction in spleen BLI over first 3 days of treatment ([2]; 54 mpk oral once daily for 3 days, cycle 1): ~20 fold | Spleen BLI, splenic CD71+TER119+ cells and V617F allele burden in peripheral blood ([2]; 54 mpk oral once daily, Day 3, no further benefit out to Day 7): Significant reductions in all three endpoints | Spleen weight at end of second holiday period ([2]; 54 mpk, 2 cycles): normalization in spleen weight | Hematocrit after 2 cycles ([2]; 54 mpk, 2 cycles of 3 days on, 4 days off, decreased from 53%, vehicle 53% to 56%): 42% | CD71+TER119+ cells in spleen relative to vehicle controls ([2]; 54 mpk, end of second holiday period): significant reduction | Level of pSTAT5 in spleens of JAK2V617F-Luciferase mice ([2]; 1 hour post-dose): significantly inhibited | Increase in spleen BLI over the 4 day holiday ([2]; 4 days after 3 days of 54 mpk, cycle 1): ~4 fold | Spleen BLI after holiday, fold less than pre-treatment levels ([2]; end of cycle 1 (3 days on, 4 days off), 54 mpk): about 5 fold | Effect on WBC ([3]; 5, 15, 25 and 40 mpk once daily): dose-dependent trend towards WBC reduction, that did not reach statistical significance | Efficacy, prevention of elevated hematocrit (Hct) ([3]; 40 mpk orally once daily): 76% | Efficacy, prevention of elevated spleen weight (SPL) ([3]; 40 mpk orally once daily): 87% | EC50 [4]: 260 nM | EC50 [5]: 135 nM | inhibition at 36 mg/kg ([6]; 36 mg/kg oral, maintained over 12 hours): > 90% | IC50 ([6]; oral dosing, mice simultaneously injected with darbepoetin, read-out: IC50 for inhibition of pSTAT5 in peripheral blood in vivo): 1200 nM | IC50 [7]: 1900 nM | Fold more potent against IL-2-dependent CTLL cells than JAK2V617F BaF3 cells in proliferation assays [8]: 2 fold | IC50 ([8]; Mus musculus, CTLL-2, 48 hour, Vialight): 13 nM | IC50 [9]: 14 nM | IC50 [10]: 29 nM
